The values below come from publication PMC2996262 (Journal of medicinal chemistry, 2010).

What is called EC50 is the concentration giving half of the maximal effect.

The test system of one assay is wild-type viruses. As to the kind of experiment: Antiviral assays, range over wild-type viruses. The class given is cell-based, HIV-1. The settings on record: Human immunodeficiency virus 1, read-out: EC50 against wild-type viruses.
A further assay concerns MDR viruses. Nature of the assay: Antiviral assays, range over MDR viruses. The class given is cell-based, HIV-1.

`CC(C)CN(C[C@@H](O)[C@H](Cc1ccccc1)NC(=O)[C@@H]1CN(c2ccccc2)C(=O)O1)S(=O)(=O)c1ccc2ncsc2c1` [15d]: in the assay on wild-type viruses, the EC50 was 14 to 41 nM. In the assay on MDR viruses (relative to wild-type viruses), the “loss of potency against MDR viruses” value is “about 6 fold”.
With `CC(=O)c1cccc(N2C[C@@H](C(=O)N[C@@H](Cc3ccccc3)[C@H](O)CN(CC(C)C)S(=O)(=O)c3ccc4ncsc4c3)OC2=O)c1` [26d], in the assay with wild-type viruses, the EC50 lay within 4.2 to 10.1 nM.
As to `CC(C)CN(C[C@@H](O)[C@H](Cc1ccccc1)NC(=O)[C@@H]1CN(c2cccc(S(C)(=O)=O)c2)C(=O)O1)S(=O)(=O)c1ccc2ncsc2c1` [27d], the EC50 in the assay on wild-type viruses was 3.5 to 5.7 nM.
In the case of `COC(=O)Nc1cccc(N2C[C@@H](C(=O)N[C@@H](Cc3ccccc3)[C@H](O)CN(CC(C)C)S(=O)(=O)c3ccc4ncsc4c3)OC2=O)c1` [31d], the EC50 in the assay with wild-type viruses fell in the range of 1.2 to 3 nM. The “antiviral potency against the MDR HIV-1 variants, better than LPV” value with MDR viruses (compared with LPV) is reported as 3 fold.
